Consider 3 substances from patent US20210382054A1, “METHODS FOR SCREENING UBIQUITIN LIGASE AGONISTS” (University of Washington, priority 2018, published 2021).

This data set deals with T1, KEAP1-ssDNA12 and KRAS^G12D-ssDNA18 (Homo sapiens, UniProt P01116+Q14145, G12D).
T1 construct: full length human KRAS4B (UniProtKB-P01116-2) with a site mutation G12D; His-tag (N, cleaved yes); His-tag (N); made in house; host or cells: E. coli BL21 (DE3)
The data set is described as follows: APTLAB (adjustable platform for tracking low affinity binding) detected by Octet BLI. The conditions noted are these: ssDNA bridge oligonucleotide alone, no compound (FIG. 8B). From the text: While TR-FRET can be used as an informative second screen for hit validation, its principle is similar to AlphaScreen and relies on beads-based and proximity-induced signals. The hit compounds were further validated with additional methods that are distinct from AlphaScreen and TR-FRET methods. […] In other words, even though these compounds might be able to promote KRAS-KEAP1 interaction, the resulting ternary complex might be too unstable to be detected by the conventional methods. To overcome this problem, a new assay was designed (designated herein as APTLAB, adjustable platform for tracking low affinity binding) (FIG. 5), in which weak interactions between complementary DNA strands with variable length was used to enhance the compound-induced low affinity binding between KRAS and KEAP1 and render it detectable by conventional methods.
To couple adjustable DNA oligonucleotide interactions with low affinity protein-protein interaction, a protein fold, HUH, which is able to react with a specific single-stranded DNA (ssDNA) oligonucleotide and form a covalently linked protein-DNA conjugate (Lovendahl, K. N., Hayward, A. N. & Gordon, W. R. Sequence-Directed Covalent Protein-DNA Linkages in a Single Step Using HUH-Tags. J Am Chem Soc 139, 7030-7035, doi:10.1021/jacs.7b02572 (2017)), was utilized. HUH protein was fused to the C-terminus of KEAP1 and KRAS^G12D individually so that the two chimeric proteins can each form a covalent link with an ssDNA containing the HUH-reactive sequence (FIGS. 5 and 6). The purified HUH fusion proteins were adjusted to 100 μM in a buffer containing 20 mM HEPES (pH 7.5), 50 mM NaCl, 0.5 mM TCEP, 1 mM MgCl2 and 1 mM MnCl2. The ssDNA oligonulceotides were added to a final concentration of 120 μM. […]
ssDNA bridge oligonucleotides were synthesized with different lengths with 33, 28 and 23 nucleotides (nt) (FIG. 8A) and tested their ability to promote complex formation between the two ssDNA-protein conjugates as monitored by BLI. […]
As to “ssDNA-bridge33nt: ssDNA bridge oligonucleotide, 33 nucleotides, 5′-GTTGTTGTTGTTGTTTTGTATGGTGTGTGGTGG-3′ (chemistry not fully specified)”, the “complex formation between KEAP1-ssDNA12 and KRAS^G12D-ssDNA18, BLI binding signal” value is “high BLI signal”.
As to “ssDNA-bridge23nt: ssDNA bridge oligonucleotide, 23 nucleotides, 5′-GTTGTTGTTTTGTATGGTGTGTG-3′ (chemistry not fully specified)”, the “complex formation between KEAP1-ssDNA12 and KRAS^G12D-ssDNA18, BLI binding signal” value is listed as “too weak to detect”.
With “ssDNA-bridge28nt: ssDNA bridge oligonucleotide, 28 nucleotides, 5′-GTTGTTGTTGTTTTGTATGGTGTGTGGT-3′; inflection point bridge (chemistry not fully specified)”, the “complex formation between KEAP1-ssDNA12 and KRAS^G12D-ssDNA18, BLI binding signal” value is listed as “significantly lower”.
